Experiments:
Type in all cases: in vivo
[1] = tested on: Amaranthus retroflexus (AMARE); test: Herbicidal pre-emergence action, 320 g/ha, AMARE; conditions: visual grading after ca. 3 weeks
Excerpt: (§1) Seeds of mono- and dicotyledonous weed plants were sown in plastic pots (double sowings with one species of mono- and one species of dicotyledonous weed plants per pot), in sandy loam, and covered with soil. The compounds according to the invention, formulated in the form of wettable powders (WP) or as emulsifiable concentrates (EC), were applied to the surface of the covering soil as an aqueous suspension or as an emulsion, with the addition of 0.5% of an additive, at an application rate of 600 litres of water per hectare (converted). Following treatment, the pots were placed in a greenhouse and kept under optimum growth conditions for the test plants. The visual grading of the damage to the test plants was carried out after ca. 3 weeks in comparison to untreated controls (herbicidal effect in percent (%): 100% effect=plants have died, 0% effect=as control plants).
Tables C1 to C6 below, show the effects of selected compounds of the general formula (I) according to Table 1 on various harmful plants using an application rate corresponding to 320 g/ha obtained by the experimental procedure mentioned above.

[2] = tested on: Stellaria media (STEME); test: Herbicidal post-emergence action, 320 g/ha, STEME; conditions: visual grading after ca. 3 weeks
Outline: (§2)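 Post-emergence spray at single-leaf stage; WP/EC in aqueous suspension/emulsion, 0.5% additive, 600 L water/ha. Greenhouse ~3 wk, visual rating vs untreated: 0% = as control, 100% = plants dead.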

[3] = tested on: Lolium rigidum (LOLRI); test: Herbicidal post-emergence action, 1280 g/ha (Table B5); conditions: visual assessment after ca. 3 weeks vs untreated controls
Outline: (§3)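 Post-emergence greenhouse pot test: weeds in sandy loam sprayed at single-leaf stage, 2–3 weeks after sowing, with WP or EC formulations plus 0.5% additive at 600 L water/ha. Effect scored visually ca. 3 weeks later versus untreated controls, 0% = as control, 100% = plants dead.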

[4] = tested on: Matricaria inodora (MATIN); test: Herbicidal post-emergence action, 1280 g/ha (Table B6); conditions: visual assessment after ca. 3 weeks vs untreated controls
Outline: as §3

[5] = tested on: Amaranthus retroflexus (AMARE); test: Herbicidal post-emergence action, 1280 g/ha, AMARE; conditions: visual grading vs untreated controls
Outline: (§4)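 Pot-grown weeds in sandy loam sprayed post-emergence at the single-leaf stage, 2–3 weeks after sowing, with WP or EC formulations plus 0.5% additive in 600 L water/ha at 1280 g/ha. After ca. 3 weeks in the greenhouse, damage scored visually as % effect versus untreated controls (100% = plants dead).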

[6] = tested on: Stellaria media (STEME); test: Herbicidal post-emergence action, 1280 g/ha (Table B9); conditions: visual assessment after ca. 3 weeks vs untreated controls
Outline: as §3

[7] = tested on: Kochia scoparia (KCHSC); test: Herbicidal post-emergence action, 320 g/ha, KCHSC; conditions: visual grading after ca. 3 weeks
Outline: as §2

[8] = tested on: Stellaria media (STEME); test: Herbicidal pre-emergence action, 1280 g/ha (Table A9); conditions: visual grading after ca. 3 weeks vs untreated controls
Outline: (§5)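 Pre-emergence soil-surface spray, sandy loam, mono-/dicot double sowings per pot; WP or EC formulations, aqueous, +0.5% additive, 600 L/ha water. Greenhouse, optimum conditions. Visual % damage vs untreated at ca. 3 wk (100% = dead).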

[9] = tested on: Veronica persica (VERPE); test: Herbicidal post-emergence action, 320 g/ha, VERPE; conditions: visual grading after ca. 3 weeks
Excerpt: (§6) Seeds of mono- and dicotyledonous weed plants were sown in plastic pots (double sowings with one species of mono- and one species of dicotyledonous weed plants per pot), in sandy loam, covered with soil and grown under controlled growth conditions. 2 to 3 weeks after sowing, the test plants were sprayed in the single-leaf stage. The compounds according to the invention, formulated in the form of wettable powders (WP) or as emulsifiable concentrates (EC), were sprayed onto the green plant parts as an aqueous suspension or as an emulsion, with the addition of 0.5% of an additive, at an application rate of 600 litres of water per hectare (converted). The test plants were placed in the greenhouse for ca. 3 weeks under optimum growth conditions, and then the effect of the preparations was assessed visually in comparison with untreated controls (herbicidal effect in percent (%): 100% effect=plants have died, 0% effect=as control plants).
(§7) Tables D1 to D8 below, show the effects of selected compounds of the general formula (I) according to Table 1 on various harmful plants using an application rate corresponding to 320 g/ha obtained by the experimental procedure mentioned above.

[10] = tested on: Abutilon theophrasti (ABUTH); test: Herbicidal post-emergence action, 1280 g/ha (Table B1); conditions: visual assessment after ca. 3 weeks vs untreated controls
Outline: as §3

[11] = tested on: Veronica persica (VERPE); test: Herbicidal post-emergence action, 1280 g/ha, VERPE; conditions: visual grading vs untreated controls
Outline: as §4

[12] = tested on: Poa annua (POAAN); test: Herbicidal pre-emergence action, 1280 g/ha (Table A7); conditions: visual grading after ca. 3 weeks vs untreated controls
Outline: as §5

[13] = tested on: Amaranthus retroflexus (AMARE); test: Herbicidal pre-emergence action, 1280 g/ha (Table A11); conditions: visual grading after ca. 3 weeks vs untreated controls
Outline: as §5

[14] = tested on: Kochia scoparia (KCHSC); test: Herbicidal post-emergence action, 1280 g/ha (Table B4); conditions: visual assessment after ca. 3 weeks vs untreated controls
Outline: as §3

[15] = tested on: Lolium rigidum (LOLRI); test: Herbicidal pre-emergence action, 1280 g/ha (Table A5); conditions: visual grading after ca. 3 weeks vs untreated controls
Outline: as §5

[16] = tested on: Amaranthus retroflexus (AMARE); test: Herbicidal post-emergence action, 320 g/ha, AMARE; conditions: visual grading after ca. 3 weeks
Outline: as §2

[17] = tested on: Matricaria inodora (MATIN); test: Herbicidal pre-emergence action, 1280 g/ha (Table A6); conditions: visual grading after ca. 3 weeks vs untreated controls
Outline: as §5

[18] = tested on: Stellaria media (STEME); test: Herbicidal pre-emergence action, 320 g/ha, STEME; conditions: visual grading after ca. 3 weeks
Outline: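 Weed seeds sown in sandy loam pots; WP or EC formulations applied pre-emergence to the covering soil surface at 320 g/ha with 0.5% additive in 600 L water/ha. Greenhouse growth; visual damage scored after ca. 3 weeks versus untreated controls (100% = plants died, 0% = as control).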

[19] = tested on: Abutilon theophrasti (ABUTH); test: Herbicidal pre-emergence action, 1280 g/ha (Table A1); conditions: visual grading after ca. 3 weeks vs untreated controls
Outline: as §5

[20] = tested on: Matricaria inodora (MATIN); test: Herbicidal post-emergence action, 320 g/ha, MATIN; conditions: visual grading after ca. 3 weeks
Outline: as §2

[21] = tested on: Setaria viridis (SETVI); test: Herbicidal pre-emergence action, 1280 g/ha (Table A8); conditions: visual grading after ca. 3 weeks vs untreated controls
Excerpt: as §1, with “plants). Tables A1 to A11 below, show the effects of selected compounds of the general formula (I) according to Table 1 on various harmful plants and an application rate corresponding to 1280 g/ha obtained by the experimental procedure mentioned above.” for “plants).”

[22] = tested on: Abutilon theophrasti (ABUTH); test: Herbicidal post-emergence action, 320 g/ha, ABUTH; conditions: visual grading after ca. 3 weeks
Outline: as §2

[23] = tested on: Lolium rigidum (LOLRI); test: Herbicidal pre-emergence action, 320 g/ha (Table C2); conditions: visual grading after ca. 3 weeks vs untreated controls
Outline: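 Applied pre-emergence to the surface of soil covering weed seeds sown in sandy loam, as WP or EC formulations in water with 0.5% additive at 600 L/ha. Greenhouse-grown; damage graded visually at ca. 3 weeks as percent of untreated controls (100% = plants died).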

[24] = tested on: Lolium rigidum (LOLRI); test: Herbicidal post-emergence action, 320 g/ha, LOLRI; conditions: visual grading after ca. 3 weeks
Excerpt: as §6, §7

[25] = tested on: Setaria viridis (SETVI); test: Herbicidal post-emergence action, 1280 g/ha (Table B8); conditions: visual assessment after ca. 3 weeks vs untreated controls
Excerpt: as §6, with “plants). Tables B1 to B11 below, show the effects of selected compounds of the general formula (I) according to Table 1 on various harmful plants using an application rate corresponding to 1280 g/ha obtained by the experimental procedure mentioned above.” for “plants).”

Cc1nn(C)c(=O)c(Oc2ccccc2Cl)c1O [Example I-003]
100%: herbicidal effect MATIN [4] | herbicidal effect AMARE [5] | herbicidal effect STEME [6] | herbicidal effect STEME [8] | herbicidal effect VERPE [9] | herbicidal effect VERPE [11] | herbicidal effect KCHSC [14] | herbicidal effect LOLRI [15]
90%: herbicidal effect AMARE [1] | herbicidal effect STEME [2] | herbicidal effect LOLRI [3] | herbicidal effect KCHSC [7] | herbicidal effect ABUTH [10] | herbicidal effect POAAN [12] | herbicidal effect AMARE [13] | herbicidal effect AMARE [16]

Cc1nn(C)c(=O)c(Oc2ccccc2C2CC2)c1O [Example I-014]
90%: herbicidal effect AMARE [1] | herbicidal effect LOLRI [3] | herbicidal effect MATIN [4] | herbicidal effect AMARE [5] | herbicidal effect ABUTH [19] | herbicidal effect VERPE [11] | herbicidal effect POAAN [12] | herbicidal effect MATIN [20] | herbicidal effect SETVI [21] | herbicidal effect AMARE [16]
100%: herbicidal effect MATIN [17] | herbicidal effect STEME [18] | herbicidal effect STEME [2] | herbicidal effect STEME [6] | herbicidal effect KCHSC [7] | herbicidal effect STEME [8] | herbicidal effect AMARE [13] | herbicidal effect KCHSC [14] | herbicidal effect LOLRI [15]

Cc1nn(C)c(=O)c(Oc2ccc(F)cc2C2CC2)c1O [Example I-033]
90%: herbicidal effect AMARE [1] | herbicidal effect MATIN [4] | herbicidal effect STEME [6] | herbicidal effect STEME [8] | herbicidal effect ABUTH [10] | herbicidal effect VERPE [11] | herbicidal effect AMARE [13] | herbicidal effect KCHSC [14] | herbicidal effect ABUTH [22] | herbicidal effect AMARE [16]
100%: herbicidal effect AMARE [5] | herbicidal effect LOLRI [23] | herbicidal effect LOLRI [15]

CCOC(=O)Oc1c(C)nn(C)c(=O)c1Oc1cc(F)ccc1C1CC1 [Example I-045]
100%: herbicidal effect LOLRI [24] | herbicidal effect LOLRI [3] | herbicidal effect MATIN [4] | herbicidal effect AMARE [5] | herbicidal effect STEME [6] | herbicidal effect STEME [8] | herbicidal effect VERPE [9] | herbicidal effect ABUTH [10] | herbicidal effect VERPE [11] | herbicidal effect AMARE [13] | herbicidal effect ABUTH [22] | herbicidal effect LOLRI [15]
90%: herbicidal effect MATIN [17] | herbicidal effect STEME [18] | herbicidal effect STEME [2] | herbicidal effect SETVI [25] | herbicidal effect ABUTH [19] | herbicidal effect KCHSC [7] | herbicidal effect MATIN [20] | herbicidal effect KCHSC [14] | herbicidal effect SETVI [21] | herbicidal effect LOLRI [23] | herbicidal effect AMARE [16]

Cc1nn(C)c(=O)c(Oc2cc(Cl)ccc2Br)c1OC(=O)C(C)C [Example I-092]
100%: herbicidal effect MATIN [17] | herbicidal effect STEME [6] | herbicidal effect STEME [8] | herbicidal effect AMARE [13] | herbicidal effect LOLRI [23] | herbicidal effect LOLRI [15]
90%: herbicidal effect AMARE [1] | herbicidal effect STEME [18] | herbicidal effect STEME [2] | herbicidal effect LOLRI [3] | herbicidal effect MATIN [4] | herbicidal effect AMARE [5] | herbicidal effect SETVI [25] | herbicidal effect ABUTH [19] | herbicidal effect SETVI [21]

Cc1nn(C)c(=O)c(Oc2cc(Cl)ccc2Cl)c1OC(=O)C(C)C [Example I-095]
100%: herbicidal effect STEME [8] | herbicidal effect AMARE [13] | herbicidal effect LOLRI [15]
90%: herbicidal effect MATIN [17] | herbicidal effect AMARE [1] | herbicidal effect STEME [18] | herbicidal effect LOLRI [24] | herbicidal effect STEME [2] | herbicidal effect LOLRI [3] | herbicidal effect MATIN [4] | herbicidal effect AMARE [5] | herbicidal effect STEME [6] | herbicidal effect LOLRI [23]

Source: patent publication US20240239755A1, “SUBSTITUTED PYRIDAZINONES, SALTS OR N-OXIDES THEREOF AND THEIR USE AS HERBICIDALLY ACTIVE SUBSTANCES” (Bayer Aktiengesellschaft, priority 2021, published 2024)
